Converted amounts (≈) assume the structure as drawn.
Key:
[1] = assay type: physicochemical
Protocol: Eine Lösung von 0,5 g 3-Dimethylaminomethylenamino-Rifamycin S in 5 ml Methanol wird mit 2 ml einer 10 % (G/V) wässerigen Natriumbicarbonatlösung und 5 ml einer 10 % (G/V) Lösung von K4[Fe(CN)6] Kaliumferrocyanid) in Wasser versetzt, die Lösung 3 Minuten intensiv gerührt und mit je 20 ml Wasser und Chloroform verdünnt. Die Chloroformphase wird abgetrennt und die wässerige Phase noch zweimal mit Chloroform extrahiert. Die vereinigten Chloroformextrakte werden getrocknet und eingedampft, wodurch 3-Dimethylaminomethylenamino-Rifamycin SV als gelbes Pulver resultiert.

[2] = system: Mycobacterium tuberculosis; experiment: Agar dilution MIC in DST agar (Ericsson and Sherris); assay type: cell-based; details: in vitro; for MIC: Mycobacterium tuberculosis, read-out: MIC Myc. tub.
[3] = system: Staphylococcus aureus 10B; experiment: as above; assay type: cell-based; details: in vitro; for MIC: Staphylococcus aureus, 10B, read-out: MIC Staph. 10B
In short: (§1)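 Read-out: minimal growth-inhibiting concentration (MIC), µg/ml. Compounds tested in vitro by agar dilution; endpoint is lowest level that still prevents visible growth.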

[4] = system: Pseudomonas aeruginosa K 799/61; experiment: as above; assay type: cell-based; details: for MIC: Pseudomonas aeruginosa, K799/61, read-out: MIC Pseu. 799
In short: as §1

Proteus morganii 1518 = experiment: as above; assay type: cell-based; details: for MIC: Morganella morganii, 1518, in vitro, read-out: MIC Prot. 1518
In short: as §1

Escherichia coli 2018 = experiment: as above; assay type: cell-based; details: for MIC: Escherichia coli, 2018, in vitro, read-out: MIC Esch. 2018
In short: as §1

Proteus morganii 2359 = experiment: as above; assay type: cell-based; details: for MIC: Morganella morganii, 2359, in vitro, read-out: MIC Prot. 2359
In short: as §1

Escherichia coli 205 = experiment: as above; assay type: cell-based; details: for MIC: Escherichia coli, 205, in vitro, read-out: MIC Esch. 205
In short: as §1

[5] = system: Staphylococcus aureus 2999; experiment: as above; assay type: cell-based; details: for MIC: Staphylococcus aureus, 2999, in vitro, read-out: MIC Staph. 2999
In short: as §1

[6] = system: Salmonella Typhimurium 277; experiment: as above; assay type: cell-based; details: in vitro; for MIC: Salmonella enterica, TYPHIMURIUM, read-out: MIC Salm. 277
In short: as §1

Staphylococcus aureus = experiment: In vitro antibacterial activity against gram-positive cocci; assay type: cell-based; details: at (at or below) the lowest limit of the tested concentration range, 0,005 y/ml
Description: (§2) Die neuen erfindungsgemässen Verbindungen der Formel I zeichnen sich vor allem durch ihre wertvollen pharmakologischen Eigenschaften aus: so besitzen sie gemäss den Resultaten in vitro antibiotische, insbesondere antibakterielle Eigenschaften, wie z.B. einerseits gegen grammpositive Kokken, wie Staphylococcus aureus, (im getesteten Konzentrationsbereich 0,005 bis 128 y/ml),andererseits gegen grammnegative Stäbchenbakterien, wie Enterobacteriaceae, z.B. Escherichia coli, Pseudomonas aeruginosa und Proteus morganii (im getesteten Konzentrationsbereich von 1 bis 64 y/ml), sowie gegen Mycobacterium tuberculosis (im getesteten Konzentrationsbereich von 0,48 bis 1,9 y/ml). […] (Für die Testresultate siehe auch Tabelle -1.)
(§3) Auch die neuen erfindungsgemässen Verbindungen der Formeln V und VI zeichnen sich durch analoge wertvolle pharmakologische Eigenschaften aus, d.h. sie besitzen gemäss den Resultaten in vitro antibiotische, insbesondere antibakterielle Eigenschaften, die sich bezüglich des Anwendungsbereichs sowie der getesteten effektiven Konzentrationen den Verbindungen der Formel I praktisch gleichen. […] (Für die Testresultate siehe auch Tabelle 2.)

[7] = system: Enterobacteriaceae, z.B. Escherichia coli, Pseudomonas aeruginosa und Proteus morganii; experiment: In vitro antibacterial activity against gram-negative rods; assay type: cell-based; details: within the stated concentration range, 1 bis 64 y/ml
Description: as §2, §3

[8] = assay type: physicochemical; remark: listed apart in the source
Protocol: Eine unter Stickstoff gerührte Suspension von 15,50 g 4-Dimethylamino-imidazolo[4,5-c]rifamycin SV (1) in 150 ml Wasser wird tropfenweise mit 20,0 ml einer 1-N-wässrigen Natriumhydroxid-Lösung (0,987 Aequivalent) versetzt. Die resultierende gelbgefärbte Lösung wird filtriert und das Filtrat der Gefriertrocknung unterworfen. […] Für C40H51N4O11Na (MG 786,85) berechnet 2,92% Na; gefunden 2,87% Na.
Eine gerührte Suspension von 8,75 g 4-(4-Isobutylpiperazinyl)-imidazolo[4,5-c]rifamycin SV (4) in 165 ml Wasser wird mit 10,0 ml 1-normaler wässriger Salzsäure (0,985 Aequivalent) versetzt. Das Gemisch wird filtriert, und das Filtrat der Gefriertrocknung unterworfen. Das erhaltene 4-(4-Isobutylpiperazinyl)-imidazolo[4,5-c]rifamycin SV-Hydrochlorid bildet ein wasserlösliches, gelbes amorphes Pulver. Für C46H63N5O11 · HC1 (898,49) berechnet: 3,95% Cl, gefunden: 4,08% Cl.

Molecule | MIC [2] [µg/mL] | MIC [3] [µg/mL] | MIC [4] [µg/mL] | MIC (Proteus morganii 1518) [µg/mL] | MIC (Escherichia coli 2018) [µg/mL] | MIC (Proteus morganii 2359) [µg/mL] | MIC (Escherichia coli 205) [µg/mL] | MIC [5] [µg/mL] | MIC [6] [µg/mL] | Hemmwirkung auf Staphylococcus aureus (Staphylococcus aureus) | Hemmung der Enterobacterien [7] | other results
3-Dimethylaminomethylenamino-Rifamycin SV [Beispiel 78A] | – | – | – | – | – | – | – | – | – | – | – | Stabilität beim Stehen in einer Lösung [1]: sehr schnell wieder zum Chinon durch Luftsauerstoffoxidation umgewandelt
COC1C=COC2(C)Oc3c(C)c(O)c4c(O)c(c5nc(N6CCN(CC(C)C)CC6)[nH]c5c4c3C2=O)NC(=O)C(C)=CC=CC(C)C(O)C(C)C(O)C(C)C(OC(C)=O)C1C (centres unmarked) [Verbindung 4, 4-(4-Isobutylpiperazinyl)-imidazolo[4,5-c]rifamycin SV] | 0.97 (≈ 1.13 µM) | 0.005 (≈ 0.0058 µM) | 8 (≈ 9.28 µM) | 4 (≈ 4.64 µM) | 4 (≈ 4.64 µM) | 4 (≈ 4.64 µM) | 4 (≈ 4.64 µM) | 0.005 (≈ 0.0058 µM) | 8 (≈ 9.28 µM) | deutliche Hemmwirkung | wirksam hemmen | –
COC1C=COC2(C)Oc3c(C)c(O)c4c(O)c(c5[nH]c(N6CCN(CC(C)C)CC6)nc5c4c3C2=O)NC(=O)C(C)=CC=CC(C)C(O)C(C)C(O)C(C)C(OC(C)=O)C1C.Cl (centres unmarked) [4-(4-Isobutylpiperazinyl)-imidazolo[4,5-c]rifamycin SV-Hydrochlorid] | – | – | – | – | – | – | – | – | – | – | – | Löslichkeit in Wasser [8]: wasserlösliches
COC1C=COC2(C)Oc3c(C)c(O)c4c(O)c(c5nc(N6CCN(C)CC6)[nH]c5c4c3C2=O)NC(=O)C(C)=CC=CC(C)C(O)C(C)C(O)C(C)C(OC(C)=O)C1C (centres unmarked) [Verbindung 3, 4-(4-Methylpiperazinyl)-imidazolo[4,5-c]rifamycin SV] | 0.97 (≈ 1.18 µM) | 0.01 (≈ 0.0122 µM) | 4 (≈ 4.88 µM) | 16 (≈ 19.5 µM) | 16 (≈ 19.5 µM) | 16 (≈ 19.5 µM) | 16 (≈ 19.5 µM) | 0.01 (≈ 0.0122 µM) | 32 (≈ 39 µM) | deutliche Hemmwirkung | wirksam hemmen | –
COC1C=COC2(C)Oc3c(C)c(O)c4c(O)c(c5nc(N(C)C)[nH]c5c4c3C2=O)NC(=O)C(C)=CC=CC(C)C(O)C(C)C(O)C(C)C(OC(C)=O)C1C (centres unmarked) [Verbindung 1, 4-Dimethylamino-imidazolo[4,5-c]rifamycin SV] | 0.97 (≈ 1.27 µM) | 0.005 (≈ 0.00654 µM) | 2 (≈ 2.61 µM) | 4 (≈ 5.23 µM) | 4 (≈ 5.23 µM) | 8 (≈ 10.5 µM) | 8 (≈ 10.5 µM) | 0.005 (≈ 0.00654 µM) | 16 (≈ 20.9 µM) | deutliche Hemmwirkung | wirksam hemmen | –
4-Pyrrolidinyl-imidazolo[4,5-c]rifamycin SV [Verbindung 19] | – | – | – | – | – | – | – | – | – | deutliche Hemmwirkung | wirksam hemmen | MIC Myc. tub. [2]: 0.48 µg/mL; MIC Staph. 10B [3]: 0.005 µg/mL; MIC Pseu. 799 ([4]; in vitro, agar dilution, DST agar): 8 µg/mL; MIC Prot. 1518 (Proteus morganii 1518; in vitro): 4 µg/mL; MIC Esch. 2018 (Escherichia coli 2018; in vitro): 4 µg/mL; MIC Prot. 2359 (Proteus morganii 2359; in vitro): 4 µg/mL; MIC Esch. 205 (Escherichia coli 205; in vitro): 2 µg/mL; MIC Staph. 2999 ([5]; in vitro): 0.005 µg/mL; MIC Salm. 277 [6]: 8 µg/mL
4-Dimethylamino-imidazolo[4,5-c]rifamycin SV-Natriumsalz | – | – | – | – | – | – | – | – | – | – | – | Löslichkeit in Wasser [8]: in Wasser klar lösliches

Reference: patent EP0049683A2, “Imidazo-rifamycines, process for their preparation, pharmaceutical preparations containing them and their use” (CIBA-GEIGY AG, priority 1980, dated 1982)
